Reference: US10125134B2 (Mirati Therapeutics, Inc., priority 2016, dated 2018)
Read-outs that look alike come from different tables or passages of the source.

Key:
[1] = test system: NCI-H358 cells (express KRas G12C), Phospho-ERK; experiment: Cellular inhibition of KRas G12C: Phospho-ERK in NCI-H358 cells; type: cell-based; details: pERK(Thr202/Tyr204) normalized with GAPDH, NCI-H358 cells, 3 hours, read-out: IC50
Method in brief: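 IC50 derived by 4-parameter fit of GAPDH-normalized pERK(Thr202/Tyr204) signal, as percent of DMSO control. Signal came from in-cell immunodetection with infrared secondaries after 3 h compound exposure of KRas G12C NCI-H358 cells at 0.5% DMSO.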

[2] = biological target: KRas G12C (Homo sapiens, UniProt P01116, C118S/C51S/C80L/G12C); experiment: KRas G12C Modification Assay (LCMS detection of covalent adduct); type: binding; details: normalized percent of control; tested at 5 μM concentration for 3 hours
Method in brief: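 Cys-light KRas G12C mutant protein incubated with compound in K-Ras assay buffer, reactions quenched at set time points with 25 mM acetic acid and analysed by intact-protein LC/MS on a C-3 column. Deconvoluted mass heights expressed as percent of control (POC) relative to compound-free protein.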

POC [2] | SMILES | IC50 ([1]; Homo sapiens, NCI-H358, 3 h) | IC50 [1] | IC50 ([1]; Homo sapiens)
C (“C”>50% POC) | C=CC(=O)N1CCN(c2nc(N3CCCC(N(C)C)C3)nc3c2CCN(c2cccc4ccccc24)C3)C[C@@H]1CC#N (stereo partly drawn) [Example 404, 2-((2S)-1-acryloyl-4-(2-(3-(dimethylamino)piperidin-1-yl)-7-(naphthalen-1-yl)-5,6,7,8-tetrahydropyrido[3,4-d]pyrimidin-4-yl)piperazin-2-yl)acetonitrile] | 0.1 to 1000 nM | – | –
C (“C”>50% POC) | C=CC(=O)N1CCN(c2nc(OC[C@@H]3CCCN3C)nc3c2CCN(c2cccc(F)c2Cl)C3)C[C@@H]1CC#N [Example 405, 2-((S)-1-acryloyl-4-(7-(2-chloro-3-fluorophenyl)-2-(((S)-1-methylpyrrolidin-2-yl)methoxy)-5,6,7,8-tetrahydropyrido[3,4-d]pyrimidin-4-yl)piperazin-2-yl)acetonitrile] | 0.1 to 1000 nM | – | –
C (“C”>50% POC) | C=CC(=O)N1CCN(c2nc(OC[C@@H]3CCCN3C)nc3c2CCN(c2cccc(F)c2F)C3)C[C@@H]1CC#N [Example 406, 2-((S)-1-acryloyl-4-(7-(2,3-difluorophenyl)-2-(((S)-1-methylpyrrolidin-2-yl)methoxy)-5,6,7,8-tetrahydropyrido[3,4-d]pyrimidin-4-yl)piperazin-2-yl)acetonitrile] | > 1000 nM | – | –
C (“C”>50% POC) | C=CC(=O)N1CCN(c2nc(NC[C@@H]3CCCN3C)nc3c2CCN(c2cccc4ccccc24)C3)C[C@@H]1CC#N [Example 407, 2-((S)-1-acryloyl-4-(2-((((S)-1-methylpyrrolidin-2-yl)methyl)amino)-7-(naphthalen-1-yl)-5,6,7,8-tetrahydropyrido[3,4-d]pyrimidin-4-yl)piperazin-2-yl)acetonitrile] | > 1000 nM | – | –
C (“C”>50% POC) | C=CC(=O)N1CCN(c2nc(OCCN3CCCCC3)nc3c2CCN(c2cccc4ccccc24)C3)C[C@@H]1CC#N [Example 408, (S)-2-(1-acryloyl-4-(7-(naphthalen-1-yl)-2-(2-(piperidin-1-yl)ethoxy)-5,6,7,8-tetrahydropyrido[3,4-d]pyrimidin-4-yl)piperazin-2-yl)acetonitrile] | 0.1 to 1000 nM | – | –
C (“C”>50% POC) | C=CC(=O)N1CCN(c2nc(OC[C@@H]3CCN(C)C3)nc3c2CCN(c2cccc4ccccc24)C3)C[C@@H]1CC#N [Example 409, 2-((S)-1-acryloyl-4-(2-(((R)-1-methylpyrrolidin-3-yl)methoxy)-7-(naphthalen-1-yl)-5,6,7,8-tetrahydropyrido[3,4-d]pyrimidin-4-yl)piperazin-2-yl)acetonitrile] | 0.1 to 1000 nM | – | –
C (“C”>50% POC) | C=CC(=O)N1CCN(c2nc(OC[C@@H]3CCCN3C)nc3c2CCN(c2cccc(F)c2C)C3)CC1CC#N (stereo partly drawn) [Example 410, 2-(1-acryloyl-4-(7-(3-fluoro-2-methylphenyl)-2-(((S)-1-methylpyrrolidin-2-yl)methoxy)-5,6,7,8-tetrahydropyrido[3,4-d]pyrimidin-4-yl)piperazin-2-yl)acetonitrile] | 0.1 to 1000 nM | – | –
C (“C”>50% POC) | C=CC(=O)N1CCN(c2nc(OC[C@@H]3CCCN3C)nc3c2CCN(c2c(F)cccc2C(F)(F)F)C3)CC1CC#N (stereo partly drawn) [Example 411, 2-(1-acryloyl-4-(7-(2-fluoro-6-(trifluoromethyl)phenyl)-2-(((S)-1-methylpyrrolidin-2-yl)methoxy)-5,6,7,8-tetrahydropyrido[3,4-d]pyrimidin-4-yl)piperazin-2-yl)acetonitrile] | – | 0.1 to 1000 nM | –
C (“C”>50% POC) | C=CC(=O)N1CCN(c2nc(OC[C@@H]3CCCN3C)nc3c2CCN(c2ccc(F)cc2C(F)(F)F)C3)CC1CC#N (stereo partly drawn) [Example 412, 2-(1-acryloyl-4-(7-(4-fluoro-2-(trifluoromethyl)phenyl)-2-(((S)-1-methylpyrrolidin-2-yl)methoxy)-5,6,7,8-tetrahydropyrido[3,4-d]pyrimidin-4-yl)piperazin-2-yl)acetonitrile] | – | 0.1 to 1000 nM | –
C (“C”>50% POC) | C=CC(=O)N1CCN(c2nc(OC[C@@H]3CCCN3C)nc3c2CCN(c2cccc(Cl)c2C(F)(F)F)C3)CC1CC#N (stereo partly drawn) [Example 413, 2-(1-acryloyl-4-(7-(3-chloro-2-(trifluoromethyl)phenyl)-2-(((S)-1-methylpyrrolidin-2-yl)methoxy)-5,6,7,8-tetrahydropyrido[3,4-d]pyrimidin-4-yl)piperazin-2-yl)acetonitrile] | – | 0.1 to 1000 nM | –
C (“C”>50% POC) | C=CC(=O)N1CCN(c2nc(OC[C@H]3C[C@H](O)CN3C)nc3c2CCN(c2cccc(F)c2C(F)(F)F)C3)CC1CC#N (stereo partly drawn) [Example 414, 2-(1-acryloyl-4-(7-(3-fluoro-2-(trifluoromethyl)phenyl)-2-(((2R,4S)-4-hydroxy-1-methylpyrrolidin-2-yl)methoxy)-5,6,7,8-tetrahydropyrido[3,4-d]pyrimidin-4-yl)piperazin-2-yl)acetonitrile] | 0.1 to 1000 nM | – | –
C (“C”>50% POC) | C=CC(=O)N1CCN(c2nc(OC[C@H]3C[C@@H](O)CN3C)nc3c2CCN(c2cccc(F)c2C(F)(F)F)C3)CC1CC#N (stereo partly drawn) [Example 415, 2-(1-acryloyl-4-(7-(3-fluoro-2-(trifluoromethyl)phenyl)-2-(((2R,4R)-4-hydroxy-1-methylpyrrolidin-2-yl)methoxy)-5,6,7,8-tetrahydropyrido[3,4-d]pyrimidin-4-yl)piperazin-2-yl)acetonitrile] | 0.1 to 1000 nM | – | –
C (“C”>50% POC) | C=CC(=O)N1CCN(c2nc(OC[C@H]3C[C@H](F)CN3C)nc3c2CCN(c2cccc(F)c2C(F)(F)F)C3)CC1CC#N (stereo partly drawn) [Example 416, 2-(1-acryloyl-4-(2-(((2R,4S)-4-fluoro-1-methylpyrrolidin-2-yl)methoxy)-7-(3-fluoro-2-(trifluoromethyl)phenyl)-5,6,7,8-tetrahydropyrido[3,4-d]pyrimidin-4-yl)piperazin-2-yl)acetonitrile] | 0.1 to 1000 nM | – | –
C (“C”>50% POC) | C=CC(=O)N1CCN(c2nc(OC[C@@]3(C)CCCN3C)nc3c2CCN(c2cccc(F)c2C(F)(F)F)C3)CC1CC#N (stereo partly drawn) [Example 417, 2-(1-acryloyl-4-(2-(((R)-1,2-dimethylpyrrolidin-2-yl)methoxy)-7-(3-fluoro-2-(trifluoromethyl)phenyl)-5,6,7,8-tetrahydropyrido[3,4-d]pyrimidin-4-yl)piperazin-2-yl)acetonitrile] | – | – | 0.1 to 1000 nM
C (“C”>50% POC) | C=CC(=O)N1CCN(c2nc(OC[C@@H]3C[C@H](O)CN3C)nc3c2CCN(c2cccc4ccccc24)C3)CC1CC#N (stereo partly drawn) [Example 418, 2-(1-acryloyl-4-(2-(((2S,4S)-4-hydroxy-1-methylpyrrolidin-2-yl)methoxy)-7-(naphthalen-1-yl)-5,6,7,8-tetrahydropyrido[3,4-d]pyrimidin-4-yl)piperazin-2-yl)acetonitrile] | 0.1 to 1000 nM | – | –
C (“C”>50% POC) | C=CC(=O)N1CCN(c2nc(OC[C@@H]3CCCN3C)nc3c2CCN(c2cccc(Cl)c2C)C3)C[C@@H]1CC#N [Example 419, 2-((S)-1-acryloyl-4-(7-(3-chloro-2-methylphenyl)-2-(((S)-1-methylpyrrolidin-2-yl)methoxy)-5,6,7,8-tetrahydropyrido[3,4-d]pyrimidin-4-yl)piperazin-2-yl)acetonitrile] | 0.1 to 1000 nM | – | –
